Experiments:
[1] = tested on: HeLa cells; assay: LIVE/DEAD viability assay (calceinAM, EthD1) of HeLa cells; format: cell-based; conditions: incubated 5 h at 5, 10 and 20 μM; concentrations used for imaging
Experimental: Cell viability was tested by using calceinAM and EthD1 (LIVE/DEAD® viability/cytotoxicity assay kit). CalceinAM is a cell-permeant profluorophore cleaved by intracellular esterases releasing the green fluorescent polyanionic calcein in live cells. EthD1 (Ethidium homodimer 1) is a non cell-permeant nucleic acid red fluorescent stain that enters only cells with damaged membranes and undergoes a fluorescence enhancement upon binding to nucleic acids, thereby producing a bright red fluorescence in dead cells. Control experiments with HeLa cells non-incubated with dye (top left, live control) or incubated for 1 h with 1% hydrogen peroxyde (top right, dead control) are shown. Cell fluorescence was evaluated by confocal microscopy.

[2] = tested on: wild-type bacteria, yeast and mammalian cells; assay: Fluorescence background of fluorogen in wild-type cells (flow cytometry, confocal); format: cell-based
Experimental: (§1) Flow cytometry analysis was performed on an Accuri C6 (BD Biosciences). Confocal micrographs were acquired on a Zeiss LSM 710 Laser Scanning Microscope equipped with a Plan Apochromat 63×/1.4 NA oil immersion objective. ZEN software was used to collect the data. Images were analyzed with Image J. Spinning-disk confocal micrographs were acquired on a Nikon Eclipse Ti microscope equipped with a 4×/0.15 N.A objective and a coolSnap HQ2/CDDcamera (Princeton Instrument). Metamorph premier 7.6 software (Molecular Devices) was used to collect the data.
(§2) Labeling of Y-FAST with HBR and HMBR in cells was then analyzed by flow cytometry in three different expression systems: yeast, E. coli and mammalian cells (HeLa cells). The fluorescence was compared to wild-type cells or cells expressing wild-type PYP. […] The performance and selectivity of Y-FAST labeling in mammalian cells, yeast and bacteria was furthermore confirmed by confocal microscopy (FIG. 14d and FIGS. 15 c to f and FIG. 16).

[3] = molecular target: T1, wild-type PYP (Halorhodospira halophila, UniProt P16113, C69G); assay: Fluorogen labeling of cells expressing wild-type PYP; format: cell-based
T1 construct: fusion partner differs by host: Aga2p (yeast surface display, pAG14); His-tag-ENLYFQG (E. coli, pET28a); expressed in transfected cells
T1 sequence (P16113 whole entry C69G, the tested form may be a part): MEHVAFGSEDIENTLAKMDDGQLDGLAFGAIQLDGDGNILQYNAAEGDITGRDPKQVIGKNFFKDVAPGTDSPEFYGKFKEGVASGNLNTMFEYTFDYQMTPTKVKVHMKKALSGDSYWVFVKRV
Experimental: as §1, §2

[4] = molecular target: T2, Y-FAST (Halorhodospira halophila, UniProt P16113, C69G/D97P/F96I/M100R/Q99S/T101G/T95M/Y94W/Y98T); format: cell-based
T2 construct: expressed in transfected cells; host or cells: HeLa cells, transiently transfected (pAG96, pIRES vector)
T2 sequence (P16113 whole entry C69G/Y94W/T95M/F96I/D97P/Y98T/Q99S/M100R/T101G): as the sequence (P16113 whole entry C69G, the tested form may be a part) above, with Y94W, T95M, F96I, D97P, Y98T, Q99S, M100R, T101G counted along it
Experimental: FIG. 21 is a set of graphs and images showing that Y-FAST fluorescence can be switched on and off by addition and withdrawal of the fluorogenic ligand. (a,b) HeLa cells expressing mCherry-Y-FAST were grown in a microfluidic channel and repeatedly incubated with HMBR-containing culture medium for 20 s and HMBR-free culture medium for 40 s. A multifunctional fluidic controller enabled several cycles of labeling/unlabeling. […] (a) Confocal timelapse showing two cycles of labeling/unlabeling (Ex/Em 488/493-575 nm). (b) Temporal evolution of the cell fluorescence upon addition (+) and removal (−) of HMBR. (c) Confocal micrographs of live HeLa cells expressing Dronpa-NLS (nucleus) and lyn11-Y-FAST (membrane) showing sequential imaging of nuclear Dronpa and membrane-anchored Y-FAST thanks to sequential on/off labeling of Y-FAST intercalated with on/off photoswitching of Dronpa (Ex/Em 488/493-797 nm). […] Scale bars 10 μm.
FIG. 22 is a set of graphs and images showing that Y-FAST enables the control of the density of fluorescent labeling independently of the expression level. […] Data represents mean±SD (n=15).
A rapid prototyping technique has been used for the device fabrication. A digital cutting machine (Graphtec, CE6000) was used to produce a 0.5 mm wide microfluidic channel in a 0.5 mm thick silicone layer, which was supported by a 50 μm thick plastic film. After removing the plastic film and oxygen plasma treatment, the silicone layer was bonded to a 5 mm thick layer of polydimethylsiloxane (PDMS) which was prepared by casting a mixture of A and B components of RTV 615 (GE, France) at a 10:1 w/w ratio on a flat silicon wafer and curing it at 80° C. for 2 h. Then, inlet and outlet holes were punched with a metal tube for connections. Afterward, the silicone-PDMS complex was bonded to a 160 μm thick cover slide after oxygen plasma treatment. Finally, the whole device was put in a 80° C. oven for 10 min. Before cell seeding, the device was sterilized under UV exposure for more than 30 min. […]

[5] = molecular target: T2, Y-FAST; assay: Labeling of Y-FAST in living cells (yeast, E. coli, HeLa) by flow cytometry; format: cell-based
Experimental: as §1, §2

[6] = tested on: zebrafish embryos; assay: Fitness of zebrafish embryos incubated with HMBR during development; format: in vivo; conditions: incubation from 50% epiboly to 24 hpf; data not shown

`Cc1cc(/C=C2\SC(=S)NC2=O)ccc1O` [HMBR, (Z)-5-(4-hydroxy-3-methylbenzylidene)-2-thioxo-1,3-thiazolidin-4-one] was tested, and the “toxicity for HeLa cells” value [1] was “non-toxic”, the “fluorescence background in wild-type cells” value [2] was “no or negligible fluorescence background” and the “binding to wild-type PYP” value [3] was “do not bind”. The “time of labeling in cells” value ([4]; 5 μM HMBR, microfluidic channel) was “within about ten seconds”, the “concentration sufficient for full labeling in cells” value ([4]; HeLa cells expressing mCherry-Y-FAST) was 1 µM and the cell permeability ([4]; inferred from labeling time in HeLa cells) was “good cell permeability”. For the same compound, the “fluorescent labeling of Y-FAST in living cells, comparison” value [5] was “outperforms HBR” and the “toxicity for zebrafish embryos (mortality, development)” value [6] was “did not induce any mortality or perturbation in the development”.

Source: patent publication US20170137473A1, “FLUOROGEN ACTIVATING AND SHIFTING TAG (FAST)” (PARIS SCIENCES ET LETTRE - QUARTIER LATIN, priority 2014, published 2017)
